The text below walks through data of EP1144365B1 (TANABE SEIYAKU CO., LTD., priority 1998, dated 2000).

The structures appear in SMILES notation.

T2 sequence (P13612 34-1032): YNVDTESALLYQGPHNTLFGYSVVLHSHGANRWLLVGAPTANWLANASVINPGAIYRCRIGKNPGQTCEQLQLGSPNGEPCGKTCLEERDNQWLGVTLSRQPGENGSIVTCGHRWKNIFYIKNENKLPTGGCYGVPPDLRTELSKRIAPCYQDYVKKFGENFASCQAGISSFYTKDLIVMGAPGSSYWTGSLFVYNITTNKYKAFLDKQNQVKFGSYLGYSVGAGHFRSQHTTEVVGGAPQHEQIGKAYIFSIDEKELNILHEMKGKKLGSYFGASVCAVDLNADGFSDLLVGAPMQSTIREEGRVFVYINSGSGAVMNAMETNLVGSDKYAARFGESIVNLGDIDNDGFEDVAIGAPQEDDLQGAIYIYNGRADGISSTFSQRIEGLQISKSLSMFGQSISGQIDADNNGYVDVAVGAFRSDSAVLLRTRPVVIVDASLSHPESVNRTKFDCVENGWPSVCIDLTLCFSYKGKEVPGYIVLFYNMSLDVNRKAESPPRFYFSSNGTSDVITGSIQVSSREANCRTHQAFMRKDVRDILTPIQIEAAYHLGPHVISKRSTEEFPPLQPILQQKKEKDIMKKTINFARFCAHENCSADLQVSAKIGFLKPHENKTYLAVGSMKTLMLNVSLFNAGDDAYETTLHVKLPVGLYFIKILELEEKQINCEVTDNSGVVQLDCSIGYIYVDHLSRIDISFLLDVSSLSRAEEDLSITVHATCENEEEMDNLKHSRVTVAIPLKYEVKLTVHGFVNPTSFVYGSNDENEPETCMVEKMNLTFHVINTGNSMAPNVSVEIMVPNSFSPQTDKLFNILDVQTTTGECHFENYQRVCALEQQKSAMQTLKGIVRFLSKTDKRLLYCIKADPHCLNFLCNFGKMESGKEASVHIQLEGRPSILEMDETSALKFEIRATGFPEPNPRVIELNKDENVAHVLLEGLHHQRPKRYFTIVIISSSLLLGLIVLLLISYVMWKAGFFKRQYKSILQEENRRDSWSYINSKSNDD
T2 sequence (P05556 21-798): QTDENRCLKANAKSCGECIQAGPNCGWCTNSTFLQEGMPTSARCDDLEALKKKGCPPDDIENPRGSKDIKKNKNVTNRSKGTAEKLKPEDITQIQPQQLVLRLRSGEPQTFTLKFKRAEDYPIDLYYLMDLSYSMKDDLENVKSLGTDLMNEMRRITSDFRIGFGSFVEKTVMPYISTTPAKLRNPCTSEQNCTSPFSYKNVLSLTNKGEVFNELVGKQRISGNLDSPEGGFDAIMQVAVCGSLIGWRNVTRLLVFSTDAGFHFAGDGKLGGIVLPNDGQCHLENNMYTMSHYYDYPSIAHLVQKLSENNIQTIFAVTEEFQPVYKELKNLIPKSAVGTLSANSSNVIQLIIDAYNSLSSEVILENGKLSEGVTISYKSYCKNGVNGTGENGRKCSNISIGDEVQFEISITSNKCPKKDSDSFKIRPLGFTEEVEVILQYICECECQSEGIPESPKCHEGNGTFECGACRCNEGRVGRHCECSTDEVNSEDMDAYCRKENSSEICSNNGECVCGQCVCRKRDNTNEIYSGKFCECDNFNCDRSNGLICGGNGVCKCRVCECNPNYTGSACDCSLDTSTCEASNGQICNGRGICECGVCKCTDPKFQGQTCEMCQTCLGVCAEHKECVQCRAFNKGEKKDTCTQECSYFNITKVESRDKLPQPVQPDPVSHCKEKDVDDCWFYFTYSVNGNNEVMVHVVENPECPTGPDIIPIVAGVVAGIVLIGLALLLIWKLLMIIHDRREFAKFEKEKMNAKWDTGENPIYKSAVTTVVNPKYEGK

The target of the first assay is T1, α4β1 integrin (Homo sapiens, UniProt P05556+P13612).
T1 construct: a T-cell line, Jurkat, known to express the α4β1 integrin; host or cells: Jurkat T-cell line
T1 sequence (P13612 34-1032): as the sequence (P13612 34-1032) above
T1 sequence (P05556 21-798): as the sequence (P05556 21-798) above
Nature of the assay: Jurkat-Endothelial Cell Adhesion Assay (Jurkat EC). It counts as cell-based. The note with it: Jurkat cell adhesion to IL-1 stimulated endothelial cell monolayers. As for the experimental part: The following assay established the activity of the present compounds in inhibiting β1-mediated cell adhesion in a representative in vitro system. This assay measures the adhesive interactions of a T-cell line, Jurkat, known to express the α4β1 integrin, to endothelial monolayers in the presence of test compounds. The test compounds were added in increasing concentrations to T-cells and then the T-cell compound mixture was added to IL-1 stimulated endothelial cell monolayers. The plates were incubated, washed and the percentage of attached cells was quantitated.
Human umbilical vein endothelial cells were purchased from Clonetics (San Diego, CA.) at passage number 2. The cells were grown on 0.5% porcine skin gelatin pre-coated flasks (Sigma, St. Louis MO.) in EGM-UV media (Clonetics, San Diego, CA) supplemented with 10% fetal bovine serum. Cells are refed every 2-3 days reaching confluence by day 4 to 6. […] The endothelial cells are not used following passage 6.
The T-cell line Jurkat was obtained from American Type Tissue Culture Collection (Rockville, MD) and the cells were cultured in RPMI containing 10 % fetal calf serum. The cells were washed twice in Hank's Balanced Salt Solution (HBSS) and resuspended in Dulbecco's Minimal Eagle's Media (DMEM) containing 2.5 mg/ml Human Serum Albumin (HSA). Jurkat cells (1x10^6 cells/ml) were stained with 10 ng/ml BCECF-AM (Molecular Probes, Eugene, OR)) in HBSS without phenol red. The cells were loaded with BCECF for 60 minutes in the dark at 37°C, washed 2 times, and resuspended in DMEM-HSA solution.
Confluent endothelial monolayers, grown in 96-well tissue culture plates, were stimulated for 4 hr. at 37 °C with 0.1 ng/ml (∼50 U/ml) recombinant IL-1 (Amgen, Thousand Oaks, CA). Following this incubation, the monolayers were washed twice with HBSS and 0.1 ml of DMEM-HSA solution was added. Jurkat cells (5 x 10^5 cells) were combined with the appropriate concentration of the test compound and 0.1 ml of the Jurkat cell-compound mixture was added to the endothelial cell monolayers. Generally, 100, 20, 5 and 1.25 µM compound concentrations were tested. […] Following this incubation, the monolayers were washed twice with PBS containing 1 mM calcium chloride and 1 mM magnesium chloride' and the plates were read using a Millipore Cytofluor 2300 (Marlboro, MA.). Fluorescence in each well was measured as Arbitrary Fluorescence Units and percent adhesion in the absence of compound was adjusted to 100% and the % adhesion in the presence of compound was calculated. Monolayers were also fixed in 3% paraformaldehyde and evaluated microscopically to verify the adhesion. This procedure is a modification of a previously published method (Cardarelli et al., J. Biol. Chem. 269:18668-18673 (1994)).
On to `O=C(Nc1ccc(C[C@H](NC(=O)[C@H]2CC[C@@H](C(=O)O)C2)C(=O)O)cc1)c1c(Cl)cccc1Cl` (mixture of isomers) [Example 112, N-[cis-(3-Carboxycyclopentyl)carbonyl]-4-[(2,6-dichlorobenzoyl)amino]-L-phenylalanine], for which the IC50 lay within 0.8 to 5 µM.
Take `O=C(O)c1cccc(C(=O)N[C@H]2CCCC[C@H]2C(=O)N[C@@H](Cc2ccc(NC(=O)c3c(Cl)cccc3Cl)cc2)C(=O)O)n1` (relative stereo) [Example 80]: the IC50 fell in the range of 0.8 to 5 µM.
Still for that read-out and setting: as for `CC1(C)[C@@H](C(=O)N[C@@H](Cc2ccc(OCc3c(Cl)cccc3Cl)cn2)C(=O)O)C[C@H]1C(=O)O` (relative stereo) [Example 109, [1S-[1α(R*),3α]]-α-[[(3-Carboxy-2,2-dimethylcyclobutyl)carbonyl]amino]-3-[(2,6-dichlorophenyl)methoxy]-6-pyridinepropanoic acid], the figure is 0.8 to 5 µM; as for `O=C(N[C@@H](Cc1ccc(NC(=O)c2c(Cl)cccc2Cl)cc1)C(=O)O)c1ccc(O)c(CN2CCOCC2)c1` [Example 4], 0.8 to 5 µM; as for `O=C(Nc1ccc(CC(NC(=O)C2CCCCC2C(=O)O)C(=O)O)cc1)c1c(Cl)cccc1Cl` (stereo not shown) [Example 8], 0.8 to 5 µM.
On the same count and under the same terms, the result for `O=C(Nc1ccc(C[C@H](NC(=O)N2CCCC[C@H]2C(=O)O)C(=O)O)cc1)c1c(Cl)cccc1Cl` [Example 11] reads 5 to 10 µM; that for `CC(Oc1cccc(C(=O)O)c1)C(=O)N[C@@H](Cc1ccc(NC(=O)c2c(Cl)cccc2Cl)cc1)C(=O)O` (stereo partly shown) [Example 14], 0.8 to 5 µM; that for `CC(C)(Oc1cccc(C(=O)O)c1)C(=O)N[C@@H](Cc1ccc(NC(=O)c2c(Cl)cccc2Cl)cc1)C(=O)O` [Example 15], 0.8 to 5 µM.
`O=C(O)c1cccc(OC(C(=O)N[C@@H](Cc2ccc(NC(=O)c3c(Cl)cccc3Cl)cc2)C(=O)O)c2ccccc2)c1` (stereo partly shown) [Example 16] registered an IC50 of 0.8 to 5 µM.
`CC(=O)c1cccc(OC(C)C(=O)N[C@@H](Cc2ccc(NC(=O)c3c(Cl)cccc3Cl)cc2)C(=O)O)c1` (stereo partly shown) [Example 18]: the IC50 lay in the range of 0.8 to 5 µM.
The same measure, in the same setting: the result for `CC(Oc1cccc(/C=C/C(=O)O)c1)C(=O)N[C@@H](Cc1ccc(NC(=O)c2c(Cl)cccc2Cl)cc1)C(=O)O` (stereo partly shown) [Example 21] reads 5 to 10 µM; that for `CC(C)(Oc1cccc(/C=C/C(=O)O)c1)C(=O)N[C@@H](Cc1ccc(NC(=O)c2c(Cl)cccc2Cl)cc1)C(=O)O` [Example 22], 0.8 to 5 µM; that for `CC(Sc1ccccc1C(=O)O)C(=O)N[C@@H](Cc1ccc(NC(=O)c2c(Cl)cccc2Cl)cc1)C(=O)O` (stereo partly shown) [Example 24], 5 to 10 µM.
For `CC(Oc1ccccc1C(=O)O)C(=O)N[C@@H](Cc1ccc(NC(=O)c2c(Cl)cccc2Cl)cc1)C(=O)O` (stereo partly shown) [Example 28], the IC50 was 0.8 to 5 µM.
Still for that read-out and setting: as for `O=C(N[C@@H](Cc1ccc(NC(=O)c2c(Cl)cccc2Cl)cc1)C(=O)O)c1cccc(NC(=O)c2ccccc2C(=O)O)c1` [Example 41], the figure is 5 to 10 µM; as for `CC1(C)[C@H](CC(=O)N[C@@H](Cc2ccc(NC(=O)c3c(Cl)cccc3Cl)cc2)C(=O)O)C[C@@H]1C(=O)O` [Example 90, (1S-cis)-N-[(3-Carboxy-2,2-dimethylcyclobutyl)acetyl]-4-[(2,6-dichlorobenzoyl)amino]-L-phenylalanine], 5 to 10 µM; as for `CC(O)[C@@H]1C[C@H](CC(=O)N[C@@H](Cc2ccc(NC(=O)c3c(Cl)cccc3Cl)cc2)C(=O)O)C1(C)C` (stereo partly drawn) [Example 92, [1R-(1α,3α)]-4-[(2,6-Dichlorobenzoyl)amino]-N-[[3-(1-hydroxyethyl)-2,2-dimethylcyclobutyl]acetyl]-L-phenylalanine], 0.8 to 5 µM.
In turn, `CC1(C)[C@@H](C(=O)N[C@@H](Cc2ccc(NC(=O)c3ccc(Cl)nc3Cl)cc2)C(=O)O)C[C@H]1C(=O)O` [Example 108, (1S-cis)-N-[(3-Carboxy-2,2-dimethylcyclobutyl)carbonyl] -4-[[(2,6-dichloro-3-pyridinyl)carbonyl]amino]-L-phenylalanine] yielded an IC50 of 0.8 to 5 µM.
Still for that read-out and setting: as for `O=C(Nc1ccc(C[C@H](NC(=O)N2CCC(C(=O)O)CC2)C(=O)O)cc1)c1c(Cl)cccc1Cl` [Example 113, 1-[[[(1S)-1-carboxy-2-[4-[(2,6-dichlorobenzoyl)amino]phenyl]ethyl]amino]carbonyl]-4-piperidinecarboxylic acid], the figure is 0.8 to 5 µM; as for `CC1=C(C(=O)O)C(C)(C)CC/C1=C\C(=O)N[C@@H](Cc1ccc(NC(=O)c2c(Cl)cccc2Cl)cc1)C(=O)O` [Example 121, N-[(1E)-3-Carboxy-2,4,4-trimethyl-2-cyclohexen-1-ylideneacetyl]-4-[(2,6-dichlorobenzoyl)amino]-L-phenylalanine], 0.8 to 5 µM; as for `O=C(/C=C1/CCCc2c(C(=O)O)cccc21)N[C@@H](Cc1ccc(NC(=O)c2c(Cl)cccc2Cl)cc1)C(=O)O` [Example 137, N-[(1Z)-5-Carboxy-3,4-dihydro-1(2H)-naphthalenylideneacetyl]-4-[(2,6-dichlorobenzoyl)amino] -L-phenylalanine], 5 to 10 µM.

Another assay concerns the target T2, α4β1 (Homo sapiens, UniProt P05556+P13612).
T2 construct: 100 µl of Jurkat cells (2.5 x 10^6 cells/ml) in DMEM plus BSA; host or cells: Jurkat T-cell line
Nature of the assay: Jurkat-CS-1 assay. The class given is cell-based. The settings on record: Jurkat cell adhesion to immobilized CS-1 derived peptide. As for the experimental part:
The CS-1 derived peptide, CLHPGEILDVPST, and the scrambled control peptide, CLHGPIELVSDPT, were synthesized on a Beckman 990 synthesizer using t-Boc methodology. The peptides were immobilized onto microtiter plates using the heterobifunctional crosslinker 3-(2-pyridyldithio)propionic acid N-hydroxysuccinimide ester (SPDP) as reported by Pierschbacher et al., Proc. Natl. Acad. USA, 80:1224-1227 (1983). Microtiter plates were coated with 20 µg/ml HSA for 2 hr. at room temperature, washed once with PBS and derivatized with 10 µg/ml SPDP for 1 hr. After washing, 100 µl of a 100 µg/ml cysteine containing peptide solution which had been recently dissolved was added to the wells and allowed to crosslink to the plates overnight at 4 °C. Unbound peptide was removed from plates by washing with PBS. To block non-reacted sites, the plates are coated with 100 µl of a 2.5 mg/ml BSA solution in PBS for 1 hr. at 37 °C. 100 µl of Jurkat cells (2.5 x 10^6 cells/ml) in DMEM plus BSA (2.5 mg/ml) was mixed with an appropriate concentration of the compound to be tested and the mixture was added to peptide coated dishes and incubated for 1 hr. at 37 °C. Generally 100, 20, 5 and 1.25 µM concentrations of the compound were tested.
Following this incubation the plates were washed once with PBS and the attached cells were fixed with 3% paraformaldehyde in PBS and stained with 0.5% toluidine blue in 3.7% formaldehyde. The cells were stained overnight at room temperature and the optical density at 590 nm of toluidine blue stained cells was determined using a vertical pathway spectrophotometer to quantitate attachment (VMAX Kinetic Microplate Reader, Molecular Devices, Menlo Park, CA). This procedure is a modification of a previously published method (Cardarelli et al, J. Biol. Chem., 269:18668-18673 (1994) and Cardarelli et al, Proc. Natl. Acad. Sci. USA, 83:2647-2651 (1986)).
In turn, `O=C(Nc1ccc(C[C@H](NC(=O)[C@H]2CC[C@@H](C(=O)O)C2)C(=O)O)cc1)c1c(Cl)cccc1Cl` (mixture of isomers) [Example 112, N-[cis-(3-Carboxycyclopentyl)carbonyl]-4-[(2,6-dichlorobenzoyl)amino]-L-phenylalanine] came in with an IC50 of 80 to 500 nM.
`O=C(O)c1cccc(C(=O)N[C@H]2CCCC[C@H]2C(=O)N[C@@H](Cc2ccc(NC(=O)c3c(Cl)cccc3Cl)cc2)C(=O)O)n1` (relative stereo) [Example 80] displayed a half-maximal inhibitory concentration (IC50) of 80 to 500 nM.
The molecule `O=C(COc1ccc(C(=O)O)cc1)N[C@@H](Cc1ccc(NC(=O)c2c(Cl)cccc2Cl)cc1)C(=O)O` [Example 12, N-[(4-carboxyphenoxy)acetyl]-4-[(2,6-dichlorobenzoyl)amino]-L-phenylalanine] came in with an IC50 of 500 to 1000 nM.
`O=C(O)CNC(=O)Nc1cccc(C(=O)N[C@@H](Cc2ccc(NC(=O)c3c(Cl)cccc3Cl)cc2)C(=O)O)c1` [Example 33, N-[3-[(N'-Carboxymethyl)ureido]benzoyl]-4-[(2,6-dichlorobenzoyl)amino]-L-phenylalanine] yielded an IC50 of 80 to 500 nM.
As for `O=C(O)CCC(=O)Nc1cccc(C(=O)N[C@@H](Cc2ccc(NC(=O)c3c(Cl)cccc3Cl)cc2)C(=O)O)c1` [Example 34], the IC50 is 500 to 1000 nM.
Molecule `CC(=O)CCC(=O)Nc1cccc(C(=O)N[C@@H](Cc2ccc(NC(=O)c3c(Cl)cccc3Cl)cc2)C(=O)O)c1` [Example 39] showed an IC50 of 500 to 1000 nM.
The same measure, in the same setting: the result for `O=C(O)c1cccc(C(=O)Nc2cccc(C(=O)N[C@@H](Cc3ccc(NC(=O)c4c(Cl)cccc4Cl)cc3)C(=O)O)c2)c1` [Example 42] reads 500 to 1000 nM; that for `O=C(O)CNC(=O)NC1(C(=O)N[C@@H](Cc2ccc(NC(=O)c3c(Cl)cccc3Cl)cc2)C(=O)O)CCCCC1` [Example 54], 500 to 1000 nM; that for `O=C(Nc1ccc(C(=O)O)cc1)NC1(C(=O)N[C@@H](Cc2ccc(NC(=O)c3c(Cl)cccc3Cl)cc2)C(=O)O)CCCCC1` [Example 60], 500 to 1000 nM.
The same measure, in the same setting: the result for `CC1(C)[C@@H](C(=O)N[C@@H](Cc2ccc(OCc3c(Cl)cccc3Cl)cc2)C(=O)O)C[C@H]1C(=O)O` [Example 95, (1S-cis)-N-[(3-Carboxy-2,2-dimethylcyclobutyl)carbonyl]-4-[(2,6-dichlorophenyl)methoxy]-L-phenylalanine] reads 500 to 1000 nM.

In general, IC50 refers to the concentration that gives 50% inhibition. Low readings indicate higher potency, high ones lower potency.
